Test results from US9815854B2, “3-(3H-imidazo[4,5-B]pyridin-2-yl)-1H-pyrazolo[3,4-C]pyridine and therapeutic uses thereof” (Samumed, LLC, priority 2014, dated 2017).

Key:
[1] = tested on: Wnt activity (Sp5-Luc reporter, TCF/LEF binding sites) in SW480 colon carcinoma cells; assay: Sp5-Luc Wnt reporter gene screening assay in SW480 colon carcinoma cells; assay type: cell-based, human; settings: Homo sapiens
Outline: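 SW480 cells stably transduced with a lentiviral luciferase reporter driven by a Sp5 promoter with eight TCF/LEF sites were plated at 10,000/well in 10% FCS medium. Luminescence was normalised to DMSO and IC50 derived by four-parameter fit.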

[2] = tested on: primary human fibroblasts derived from IPF patients (LL29 cells); assay: Inhibition of the fibrotic process in TGF-β1-treated primary human fibroblasts from IPF patients (αSMA staining); assay type: cell-based; settings: Fibroblast, 96 h, TGF-β1 20 ng/mL, 4 days, read-out: Inhibition of fibrosis EC50
Outline: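 IPF-derived LL29 lung fibroblasts, 1,500 per well in F12 with 1% FBS, treated with compound (10 μM to […], 0.1% DMSO) and TGF-β1 20 ng/mL for 4 days at 37 °C. αSMA-positive live cells imaged and normalised to TGF-β1 controls; EC50 by nonlinear regression over triplicate wells.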

[3] = tested on: primary human mesenchymal stem cells (hMSCs); assay: Chondrogenesis induction screen in primary human mesenchymal stem cells (nodule imaging, Rhodamine B/Nile Red); assay type: cell-based; settings: 6 days; for EC (100% of TGF-b3 activity): Homo sapiens, Mesenchymal stem cells, 144 h, concentration required to induce chondrogenesis equivalent to TGF-β3 (10 ng/mL), read-out: Conc (nM) of 100% TGF-β3 activity
Method: The above synthesized compounds were screened using primary human mesenchymal stem cells (hMSCs) to determine their ability to induce chondrogenesis (process by which cartilage is developed).
Human Mesenchymal Stern Cell Culture: Primary human mesenchymal stem cells (hMSCs) were purchased from Lonza (Walkersville, Md.) and expanded in Mesenchymal Stem Cell Growth Media (Lonza). Cells between passage 3 and 6 were used for the experiments.
Compound Screening: Each compound was dissolved in DMSO as a 10 mM stock and used to prepare compound source plates. Serial dilution (1:3, 6-point dose-response curves from 2700 nM to 10 nM) and compound transfer was performed using the ECHO 550 (Labcyte, Sunnyvale, Calif.) into 96-well clear bottom assay plates (Greiner Bio-One) with appropriate DMSO backfill for a final DMSO concentration of 0.03%. hMSCs were plated at 20,000 cells/well in 250 μL/well incomplete Chondrogenic induction Medium (Lonza; DMEM, dexamethasone, ascorbate, insulin-transferrin-selenium [ITS supplement], gentamycin-amphotericin [GA-1000], sodium pyruvate, proline and L-glutamine). TGF-β3 (10 ng/mL) was used as a positive control for differentiation while negative control wells were treated with 75 nL DMSO for normalization and calculating EC50 values. Cells were incubated at 37° C. and 5% CO2 for 6 days. To image chondrogenic nodules, the cells were fixed using 4% formaldehyde (Electron Microscopy Sciences), and stained with 2 μg/mL Rhodamine B (Sigma-Aldrich) and 20 μM Nile Red (Sigma-Aldrich) [Johnson K., et.al, A Stem Cell-Based Approach to Cartilage Repair, Science, (2012), 336(6082), 717-721]. The nodules imaged (4 images per well at 4× magnification) by excitation at 531 nm and emission at 625 nm and quantified using the CellInsight CX5 (Thermo Scientific). Number of nodules in each well was normalized to the average of 3 DMSO treated wells on the same plate using Excel (Microsoft Inc.). The normalized averages (fold change over DMSO) of 3 replicate wells for each compound concentration were calculated. Due to solubility limitations of some of the compounds, curve fitting was incomplete leading to inaccurate EC50 determinations.
Using TGF-β3 as a positive control, the concentration of test compounds required to induce equivalent levels of chondrogenesis is reported. In addition, the maximum activity of each compound and the respective dose that each compound reached maximum chondrogenesis activity is reported.

| IC50 [1] [nM] | SMILES | EC50 [2] [nM] | EC (100% of TGF-b3 activity) [3] [nM] | Max. Activity as % TGF-β3 activity ([3]; TGF-β3 (10 ng/mL) positive control) [%] |
| --- | --- | --- | --- | --- |
| 22.1 | Fc1cccc(-c2ccnc3[nH]c(-c4n[nH]c5cnc(-c6cncc(CN7CCC(F)(F)C7)c6)cc45)nc23)c1 [Compound 25, 5-(5-((3,3-Difluoropyrrolidin-1-yl)methyl)pyridin-3-yl)-3-(7-(3-fluorophenyl)-3H-imidazo[4,5-b]pyridin-2-yl)-1H-pyrazolo[3,4-c]pyridine] | 20 | 112 | – |
| 10.6 | Cc1ccc(-c2ccnc3[nH]c(-c4n[nH]c5cnc(-c6cncc(NC(C)C)c6)cc45)nc23)s1 [Compound 376, N-Isopropyl-5-(3-(7-(5-methylthiophen-2-yl)-3H-imidazo[4,5-b]pyridin-2-yl)-1H-pyrazolo[3,4-c]pyridin-5-yl)pyridin-3-amine] | ≥ 9990 | – | – |
| 180 | Cc1ccc(-c2ccnc3[nH]c(-c4n[nH]c5cnc(-c6cncc(CN7CCCCC7)c6)cc45)nc23)s1 [Compound 379, 3-(7-(5-Methylthiophen-2-yl)-3H-imidazo[4,5-b]pyridin-2-yl)-5-(5-(piperidin-1-ylmethyl)pyridin-3-yl)-1H-pyrazolo[3,4-c]pyridine] | 299 | – | – |
| 84.4 | Cc1ccc(-c2ccnc3[nH]c(-c4n[nH]c5cnc(-c6cncc(NC(=O)C7CCCC7)c6)cc45)nc23)s1 [Compound 385] | 106 | – | – |
| > 10000 | CC(=O)c1ccc(-c2ccnc3[nH]c(-c4n[nH]c5cnc(-c6cncc(NC(=O)CC(C)(C)C)c6)cc45)nc23)s1 [Compound 406, N-(5-(3-(7-(5-Acetylthiophen-2-yl)-3H-imidazo[4,5-b]pyridin-2-yl)-1H-pyrazolo[3,4-c]pyridin-5-yl)pyridin-3-yl)-3,3-dimethylbutanamide] | ≥ 9990 | – | – |
| > 10000 | CC(=O)c1ccc(-c2ccnc3[nH]c(-c4n[nH]c5cnc(-c6cncc(NC(=O)C7CCCCC7)c6)cc45)nc23)s1 [Compound 412, N-(5-(3-(7-(5-Acetylthiophen-2-yl)-3H-imidazo[4,5-b]pyridin-2-yl)-1H-pyrazolo[3,4-c]pyridin-5-yl)pyridin-3-yl)cyclohexanecarboxamide] | ≥ 9990 | – | – |
| 23.3 | Cc1ccncc1-c1cc2c(-c3nc4c(-c5cc(F)cc(CNS(C)(=O)=O)c5)ccnc4[nH]3)n[nH]c2cn1 [Compound 421, N-(3-Fluoro-5-(2-(5-(4-methylpyridin-3-yl)-1H-pyrazolo[3,4-c]pyridin-3-yl)-3H-imidazo[4,5-b]pyridin-7-yl)benzyl)methanesulfonamide] | – | 70 | 30 |
| > 10000 | CS(=O)(=O)NCc1cc(F)cc(-c2ccnc3[nH]c(-c4n[nH]c5cnc(-c6cncc(NC(=O)c7ccccc7)c6)cc45)nc23)c1 [Compound 427, N-(5-(3-(7-(3-Fluoro-5-(methylsulfonamidomethyl)phenyl)-3H-imidazo[4,5-b]pyridin-2-yl)-1H-pyrazolo[3,4-c]pyridin-5-yl)pyridin-3-yl)benzamide] | ≥ 9990 | – | – |
| > 10000 | CCCC(=O)Nc1cncc(-c2cc3c(-c4nc5c(-c6cc(F)cc(CNS(C)(=O)=O)c6)ccnc5[nH]4)n[nH]c3cn2)c1 [Compound 433, N-(5-(3-(7-(3-Fluoro-5-(methylsulfonamidomethyl)phenyl)-3H-imidazo[4,5-b]pyridin-2-yl)-1H-pyrazolo[3,4-c]pyridin-5-yl)pyridin-3-yl)butyramide] | ≥ 9990 | – | – |
| > 10000 | CS(=O)(=O)NCc1cc(F)cc(-c2ccnc3[nH]c(-c4n[nH]c5cnc(-c6cncc(CNCc7ccccc7)c6)cc45)nc23)c1 [Compound 439, N-(3-(2-(5-(5-((Benzylamino)methyl)pyridin-3-yl)-1H-pyrazolo[3,4-c]pyridin-3-yl)-3H-imidazo[4,5-b]pyridin-7-yl)-5-fluorobenzyl)methanesulfonamide] | ≤ 9 | – | – |
| > 10000 | CS(=O)(=O)NCc1cc(F)cc(-c2ccnc3[nH]c(-c4n[nH]c5cnc(-c6cncnc6)cc45)nc23)c1 [Compound 442, N-(3-Fluoro-5-(2-(5-(pyrimidin-5-yl)-1H-pyrazolo[3,4-c]pyridin-3-yl)-3H-imidazo[4,5-b]pyridin-7-yl)benzyl)methanesulfonamide] | ≥ 9990 | – | – |
| 94.7 | CC(C)Nc1cncc(-c2cc3c(-c4nc5c(-c6cc(F)cc(NCCN(C)C)c6)ccnc5[nH]4)n[nH]c3cn2)c1 [Compound 454, N^1-(3-Fluoro-5-(2-(5-(5-(isopropylamino)pyridin-3-yl)-1H-pyrazolo[3,4-c]pyridin-3-yl)-3H-imidazo[4,5-b]pyridin-7-yl)phenyl)—N^2,N^2-dimethylethane-1,2-diamine] | 746 | – | – |
| 1740 | CN(C)CCNc1cc(F)cc(-c2ccnc3[nH]c(-c4n[nH]c5cnc(-c6cncc(CNCC7CCCC7)c6)cc45)nc23)c1 [Compound 466, N^1-(3-(2-(5-(5-(((Cyclopentylmethyl)amino)methyl)pyridin-3-yl)-1H-pyrazolo[3,4-c]pyridin-3-yl)-3H-imidazo[4,5-b]pyridin-7-yl)-5-fluorophenyl)—N2,N2-dimethylethane-1,2-diamine] | ≤ 9 | – | – |
| 198 | Fc1cccc(-c2ccnc3[nH]c(-c4n[nH]c5cnc(-c6cn[nH]c6)cc45)nc23)c1 [Compound 939, 3-(7-(3-Fluorophenyl)-3H-imidazo[4,5-b]pyridin-2-yl)-5-(1H-pyrazol-4-yl)-1H-pyrazolo[3,4-c]pyridine] | 14 | – | – |
| 405 | Cn1cc(-c2cc3c(-c4nc5c(-c6cccc(F)c6)ccnc5[nH]4)n[nH]c3cn2)cn1 [Compound 940, 3-(7-(3-Fluorophenyl)-3H-imidazo[4,5-b]pyridin-2-yl)-5-(1-methyl-1H-pyrazol-4-yl)-1H-pyrazolo[3,4-c]pyridine] | 353 | – | – |
| > 10000 | Cc1ncc(-c2cc3c(-c4nc5c(-c6cccc(F)c6)ccnc5[nH]4)n[nH]c3cn2)n1C [Compound 941] | 1000 | – | – |
| 1490 | NC1CN(c2cncc(-c3cc4c(-c5nc6c(-c7cccc(F)c7)ccnc6[nH]5)n[nH]c4cn3)n2)C1 [Compound 942, 1-(6-(3-(7-(3-Fluorophenyl)-3H-imidazo[4,5-b]pyridin-2-yl)-1H-pyrazolo[3,4-c]pyridin-5-yl)pyrazin-2-yl)azetidin-3-amine] | 1470 | – | – |
| 1600 | CN(C)CCOc1cncc(-c2cc3c(-c4nc5c(-c6cccc(F)c6)ccnc5[nH]4)n[nH]c3cn2)c1 [Compound 947, 2-((5-(3-(7-(3-Fluorophenyl)-3H-imidazo[4,5-b]pyridin-2-yl)-1H-pyrazolo[3,4-c]pyridin-5-yl)pyridin-3-yl)oxy)-N,N-dimethylethan-1-amine] | ≥ 9990 | – | – |
| 850 | COc1cncc(-c2cc3c(-c4nc5c(-c6cccc(F)c6)ccnc5[nH]4)n[nH]c3cn2)c1 [Compound 948, 3-(7-(3-Fluorophenyl)-3H-imidazo[4,5-b]pyridin-2-yl)-5-(5-methoxypyridin-3-yl)-1H-pyrazolo[3,4-c]pyridine] | 632 | – | – |
| 661 | Fc1cccc(-c2ccnc3[nH]c(-c4n[nH]c5cnc(-c6cnccn6)cc45)nc23)c1 [Compound 954, 3-(7-(3-Fluorophenyl)-3H-imidazo[4,5-b]pyridin-2-yl)-5-(pyrazin-2-yl)-1 H-pyrazolo[3,4-c]pyridine] | ≥ 9990 | – | – |
| > 10000 | COc1cc(F)cc(-c2ccnc3[nH]c(-c4n[nH]c5cnc(-c6cncc(NC(=O)CC(C)C)c6)cc45)nc23)c1 [Compound 1394, N-(5-(3-(7-(3-Fluoro-5-methoxyphenyl)-3H-imidazo[4,5-b]pyridin-2-yl)-1H-pyrazolo[3,4-c]pyridin-5-yl)pyridin-3-yl)-3-methyl butanamide] | 495 | – | – |
